Experiments:
Format in all cases: cell-based, human
[1] = test system: HCT116 colorectal cancer cells; assay: Apoptosis after siRNA silencing (micrographs, annexin V staining), HCT116 cells; details: single dose of siRNA, basal conditions
Experimental: (§1) Isogenic colorectal carcinoma cell lines HCT116 p53+/+ and HCT116 p53-/- were cultured in DMEM supplemented with 10% FBS. Non-cancer retinal epithelial cell line ARPE-19 was cultured in DMEM:F12 supplemented with 10% FBS. Cells used in experiments were low passage number (not >8 splits from nitrogen). Transfection of siRNA were as described (Ford et al., 2005; Ford et al., 2008). SIRT1 FL siRNA (targeting SIRT1 FL and SIRT1 ΔEx3-4) is sited within exon8; SIRT1 ΔEx8 siRNA (targeting SIRT1 ΔEx8 and SIRT1 ΔEx3-4-8) is located across the alternate exon7-exon9 splice. Sequences and locations of siRNAs are detailed in the Supplementary Table 3.
(§2) Digital phase contrast cell images were captured on an Axiovert Cell Observer (Zeiss). Quantification of apoptosis was performed using an AnnexinV-Fluos kit (Roche) according to the manufacturer's instructions, with analysis by flow cytometry on a FACSCalibur (BD) using CellQuest software.

p53 [2] = assay: Immunoblot of p53 protein and p53 acetylation after siRNA silencing, HCT116 cells
Experimental: as §1

[3] = test system: ARPE19 retinal epithelial cells; assay: Morphological neuronal differentiation of ARPE19 cells (phase contrast micrographs); details: for morphological differentiation towards neuronal phenotype after siRNA silencing: 72 h to 96 hr after siRNA
Experimental: as §1, §2
Cells were treated for 48 h with 1 μM fenretinide in OPTIMEM media 24 h following siRNA transfection. Before addition of fenretinide cells were first washed with OPTIMEM to remove serum. 48 h later fenretinide was removed by washing with OPTIMEM and normal growth media with serum was added. Cells were then monitored by microscopy for a further 48 h.

p53 [4] = assay: Immunoblot of p53 protein and p53 acetylation after siRNA silencing or stress, ARPE19 cells; details: for p53 induction in response to DNA damaging agent: agent alone
Experimental: as §1

[5] = test system: ARPE19 non-cancer epithelial cells; assay: Apoptosis after siRNA silencing, ARPE19 cells
Experimental: as §1, §2

SIRT1 Δ2-9 mRNA = SIRT1 Δ2-9 mRNA knock-down by RT-PCR in ARPE19 and HCT116 cells
Experimental: as §1
Standard RT-PCR was performed on a DNA Engine Dyad (MJ Research) using a One-Step RT-PCR kit (Qiagen). Reaction endpoints were electrophoresed on agarose gels, visualised on a UV transilluminator (Appligene) and images captured with a DS34 camera (Polaroid). […] Total RNA from cell experiments was isolated using an RNeasy kit (Qiagen) and quantitated by UV spectroscopy (GeneSpecV). For qRT-PCR, reactions were run in quadruplicate on a DNA Engine Opticon (BioRad) using a QuantiTect SYBR Green RT-PCR kit (Qiagen). […]
In order to look at the functional significance of SIRT1 Δ2-9, a siRNA was designed to the splice junction region of exon-2 and exon-9. […] These changes were also confirmed by quantitative RT-PCR (FIG. 20E). […]

Molecule: UAAUUCCAAGUAAUCAGUA [SIRT1 ΔEx8 siRNA]
- induction of apoptosis [1]: did not induce apoptosis
- accumulation of total p53 protein (p53 [2]; HCT116 cells, basal conditions): A similar effect was not observed
- morphological differentiation towards neuronal phenotype after siRNA silencing [3]: did not induce morphological differentiation

Molecule: O=c1[nH]cc(F)c(=O)[nH]1 [SFU, reference compound]
- p53 induction in response to DNA damaging agent (p53 [4]): induced substantially

Molecule: ACUUUGCUGUAACCCUGUA [SIRT1 FL siRNA]
- induction of apoptosis [1]: induced massive apoptosis
- accumulation of total p53 protein (p53 [2]; HCT116 cells, basal conditions): approximately 10 fold
- increase of p53 acetylation levels (p53 [2]; HCT116 cells, basal conditions): more than 50 fold
- induction of apoptosis [5]: fails to induce apoptosis
- morphological differentiation towards neuronal phenotype after siRNA silencing [3]: induces neuronal differentiation

Molecule: CC1=C(/C=C/C(C)=C/C=C/C(C)=C/C(=O)Nc2ccc(O)cc2)C(C)(C)CCC1 [fenretinide, reference compound]
- neuronal differentiation induced by compound ([3]; 1 μM, 48 h, OPTIMEM): can be induced

Molecule: COc1cc([C@@H]2c3cc4c(cc3[C@@H](O[C@@H]3O[C@@H]5CO[C@@H](C)O[C@H]5[C@H](O)[C@H]3O)[C@H]3COC(=O)[C@H]23)OCO4)cc(OC)c1O [Etoposide, reference compound]
- p53 induction in response to DNA damaging agent (p53 [4]): induced substantially

Molecule: CCUUCUGUUCGUUCUUGUG [SIRT1 Δ2-9 siRNA]
- SIRT1 Δ2-9 mRNA expression (SIRT1 Δ2-9 mRNA): almost completely abolished
- p53 protein level (Western blot) (p53 [2]; HCT116 p53+/+ cells): significantly reduced
- p53 protein level (Western blot) (p53 [4]): significantly reduced
- stress-induced p53 induction in siRNA treated samples (p53 [4]; Etoposide, UV or 5FU in combination with siRNA): attenuated

From patent publication US20120178796A1, “SPLICE VARIANTS” (priority 2009, published 2012)
